The target of one assay is T1, XIAP BIR-3 (Homo sapiens, UniProt P98170).
T1 construct: 40 nM of the respective IAP BIR3
Put plainly: Fluorescence polarization binding affinity to XIAP BIR-3 (competition with AbuRPF-K(5-Fam)-NH2). Conditions: 5 nM labeled peptide, 40 nM BIR3, 15 min at RT, pH 7.5; reported as ranges. In short, it runs like this: (§1)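 Test peptides at varied concentrations competed with 5 nM fluorescent Smac-mimetic tracer for 40 nM BIR3 domain, 15 min at RT in 0.1M potassium phosphate pH 7.5 with […] bovine g-globulin. Polarization (mP) read at 485/520 nm; KD reported in bins (A=<0.1 μM, B=0.1–1 μM, C>1–10 μM, D=>10 μM).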
For orientation: Polarisation of emitted light reports the rotation of a fluorescent probe.

A further assay has as its target cIAP-1 BIR-3 (Homo sapiens, UniProt Q13490). The assay is described as follows: Fluorescence polarization binding affinity to cIAP-1 BIR-3 (competition with AbuRPF-K(5-Fam)-NH2). Conditions: 5 nM labeled peptide, 40 nM BIR3, 15 min at RT, pH 7.5; reported as ranges; read-out: KD (c-IAP-1 BIR3). In short, it runs like this:
as §1

For the next assay, the system named is SK-OV-3 cells. The assay is described as follows: Growth inhibition of ovarian cancer cell line SK-OV-3 (MTT assay, cell survival). Conditions: Homo sapiens, drug concentration that results in 50% cell survival, 72 hrs incubation, reported as ranges. The class given is cell-based. In short, it runs like this: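 After overnight seeding in McCoy's medium with 10% FBS, SK-OV-3 cells were exposed to compound at 0.003-10 μM for 72 hrs at 37° C. MTT was then added for 3 h, with DMSO solubilization and OD read at 535 nm. CC50 is the concentration giving 50% survival relative to untreated control, reported as ranges.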
(In general: Tetrazolium dyes change colour on reduction, which living cells bring about.)

pKd: −log10 of the molar value.

Sequence of cIAP-1 BIR-3 (Q13490 266-352 limits assumed): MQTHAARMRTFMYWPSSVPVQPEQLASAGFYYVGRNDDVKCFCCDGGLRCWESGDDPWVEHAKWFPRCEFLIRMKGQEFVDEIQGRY
T1 sequence (P98170 241-356 limits assumed): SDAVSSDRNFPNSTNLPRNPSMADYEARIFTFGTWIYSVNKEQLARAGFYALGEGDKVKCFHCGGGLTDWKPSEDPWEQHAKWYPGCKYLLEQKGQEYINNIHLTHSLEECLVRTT

`CN[C@@H](C)C(=O)N[C@H](C(=O)N1CC[C@@H]2[C@H]1[C@@H](c1c[nH]c3cc(F)ccc13)CN2Cc1ccccn1)C1CCCCC1` [Example 24, N-{1-Cyclohexyl-2-[6-(6-fluoro-1H-indol-3-yl)-4-pyridin-2-ylmethyl-hexahydro-pyrrolo[3,2-b]pyrrol-1-yl]-2-oxo-ethyl}-2-methylamino-propionamide]: the pKd at XIAP BIR-3 and on cIAP-1 BIR-3 was above 7.00 in each case. The molecule further had a CC50 in the assay on SK-OV-3 cells below 100 nM.
As to `CC[C@H](NC(=O)[C@H](C)NC)C(=O)N1CC[C@@H]2[C@H]1[C@@H](c1c[nH]c3cc(F)ccc13)CN2C(C)=O` [Example 60, N-{1-[4-Acetyl-6-(6-fluoro-1H-indol-3-yl)-hexahydro-pyrrolo[3,2-b]pyrrole-1-carbonyl]-propyl}-2-methylamino-propionamide], the pKd on XIAP BIR-3 and at cIAP-1 BIR-3 was above 7.00 in each case. This molecule returned a CC50 with SK-OV-3 cells below 100 nM.
As to `CN[C@@H](C)C(=O)N[C@H](C(=O)N1CC[C@@H]2[C@H]1[C@@H](c1c[nH]c3cc(F)ccc13)CN2Cc1cccnc1)C1CCCCC1` [Example 25, N-{1-Cyclohexyl-2-[6-(6-fluoro-1H-indol-3-yl)-4-pyridin-3-ylmethyl-hexahydro-pyrrolo[3,2-b]pyrrol-1-yl]-2-oxo-ethyl}-2-methylamino-propionamide], the pKd at XIAP BIR-3 and on cIAP-1 BIR-3 was above 7.00 in each case. In the assay with SK-OV-3 cells, this molecule displayed a CC50 of 100 to 1000 nM.
Take `CN[C@@H](C)C(=O)N[C@H](C(=O)N1CC[C@@H]2[C@H]1[C@@H](c1c[nH]c3cc(F)ccc13)CN2c1ncccn1)C(C)C` [Example 77, N-{1-[6-(6-Fluoro-1H-indol-3-yl)-4-pyrimidin-2-yl-hexahydro-pyrrolo[3,2-b]pyrrole-1-carbonyl]-2-methyl-propyl}-2-methylamino-propionamide]: the negative-log Kd (pKd) at XIAP BIR-3 and at cIAP-1 BIR-3 was above 7.00 in each case. Also, the cytotoxic concentration (CC50) in the assay with SK-OV-3 cells is below 100 nM.
With `CN[C@@H](C)C(=O)N[C@H](C(=O)N1CC[C@@H]2[C@H]1[C@@H](c1c[nH]c3cc(F)ccc13)CN2C1CCCC1)C(C)(C)C` [Example 4], the pKd at XIAP BIR-3 and at cIAP-1 BIR-3 was above 7.00 in each case. The molecule also gave a CC50 in the assay on SK-OV-3 cells below 100 nM.
Regarding `CN[C@@H](C)C(=O)N[C@H](C(=O)N1CC[C@@H]2[C@H]1[C@@H](c1c[nH]c3cc(F)ccc13)CN2Cc1nccn1C)C1CCCCC1` [Example 27, N-{1-Cyclohexyl-2-[6-(6-fluoro-1H-indol-3-yl)-4-(1-methyl-1H-imidazol-2-ylmethyl)-hexahydro-pyrrolo[3,2-b]pyrrol-1-yl]-2-oxo-ethyl}-2-methylamino-propionamide], the pKd on XIAP BIR-3 and on cIAP-1 BIR-3 was above 7.00 each time. In the assay with SK-OV-3 cells, this molecule showed a CC50 of 1000 to 10000 nM.
As to `CN[C@@H](C)C(=O)N[C@H](C(=O)N1CC[C@@H]2[C@H]1[C@@H](c1c[nH]c3cc(F)ccc13)CN2C(C)=O)C1CCCCC1` [Example 59, N-{2-[4-Acetyl-6-(6-fluoro-1H-indol-3-yl)-hexahydro-pyrrolo[3,2-b]pyrrol-1-yl]-1-cyclohexyl-2-oxo-ethyl}-2-methylamino-propionamide], the pKd at XIAP BIR-3 and at cIAP-1 BIR-3 was above 7.00 each time. In the assay on SK-OV-3 cells, the CC50 is below 100 nM.
On to `CC[C@H](NC(=O)[C@H](C)NC)C(=O)N1CC[C@H]2NC[C@H](c3c[nH]c4cc(F)ccc34)[C@H]21` [Example 29, N-{1-[6-(6-Fluoro-1H-indol-3-yl)-hexahydro-pyrrolo[3,2-b]pyrrole-1-carbonyl]-propyl}-2-methylamino-propionamide], for which the pKd on XIAP BIR-3 and on cIAP-1 BIR-3 was above 7.00 in each case. In the assay with SK-OV-3 cells, the CC50 lay within 100 to 1000 nM.
Turning to `CN[C@@H](C)C(=O)N[C@@H](CO)C(=O)N1CC[C@@H]2[C@H]1[C@@H](c1c[nH]c3cc(F)ccc13)CN2c1ncccn1` [Example 80, N-{2-[6-(6-Fluoro-1H-indol-3-yl)-4-pyrimidin-2-yl-hexahydro-pyrrolo[3,2-b]pyrrol-1-yl]-1-hydroxymethyl-2-oxo-ethyl}-2-methylamino-propionamide], the pKd on XIAP BIR-3 and at cIAP-1 BIR-3 was above 7.00 each time. The molecule also showed a CC50 with SK-OV-3 cells below 100 nM.
For the molecule `CN[C@@H](C)C(=O)N[C@H](C(=O)N1C[C@@H](O)[C@H]2NC[C@H](c3c[nH]c4cc(F)ccc34)[C@H]21)C1CCCCC1` [Example 85], the pKd is 6.00 to 7.00 at XIAP BIR-3 and above 7.00 at cIAP-1 BIR-3. Besides, the CC50 with SK-OV-3 cells lay within 100 to 1000 nM.

The term pKd denotes the Kd on a negative log10 scale, so that one unit is a factor of ten. By CC50 is commonly meant the concentration giving 50% cytotoxicity. A high value points to lower toxicity to the cells.

These data come from patent US8399683B2 (TetraLogic Pharmaceuticals, priority 2008, dated 2013).
